Values quoted from earlier work, collected in patent US8536091B2, “System for protection of plants from pathogens using alkamides” (priority 2008, dated 2013).

System: microbial plant pathogens, including bacteria and fungi
Details: in the absence of plants; relatively high levels

## C/C=C/C=C\CC/C=C/C(=O)NCC(C)C [affinin, N-isobutyl-deca-2E,6Z,8E-trieneamide]
  in vitro growth inhibition of microbial plant pathogens: inhibit the growth of some microbial plant pathogens
